Measured values from ChEMBL document CHEMBL1201862, “PubChem BioAssay data set” (2004).
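In this assay, cells in 96-well plates receive the compound at five concentrations for 48 hours. Endpoints are linearly interpolated between the surrounding concentrations. Here, GI50 denotes the concentration required for 50% inhibition of growth.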 Active and inactive are the calls of the source. Cut-off read from the data, not from the text of the source: active = GI50 up to about 1.1 µM and inactive = higher.

What was measured:
Assay in all cases: NCI tumour cell line growth inhibition, 48 h
Malme-3M = test system: Malme-3M
SNB-75 = test system: SNB-75
ACHN = test system: ACHN
SF-268 = test system: SF-268
SF-539 = test system: SF-539
SNB-19 = test system: SNB-19
M14 = test system: M14
NCI-H23 = test system: NCI-H23
SK-MEL-28 = test system: SK-MEL-28
MOLT-4 = test system: MOLT-4
TK-10 = test system: TK-10
SK-MEL-2 = test system: SK-MEL-2
EKVX = test system: EKVX
CCRF-CEM = test system: CCRF-CEM
OVCAR-5 = test system: OVCAR-5
U-251 = test system: U-251
HT-29 = test system: HT-29
A549 = test system: A549
RPMI-8226 = test system: RPMI-8226
SF-295 = test system: SF-295

Measured: GI50

O=S(O)c1cc(Cl)c(O)c(Cl)c1
inactive: Malme-3M > 100 µM | SNB-75 > 100 µM | ACHN > 100 µM | SF-268 > 100 µM | SF-539 > 100 µM | SNB-19 > 100 µM | M14 > 100 µM | NCI-H23 > 100 µM | SK-MEL-28 > 100 µM | MOLT-4 > 100 µM | TK-10 > 100 µM | SK-MEL-2 > 100 µM | EKVX > 100 µM | CCRF-CEM > 100 µM | OVCAR-5 > 100 µM | U-251 > 100 µM | HT-29 > 100 µM

Nc1ccc(OCC(O)N2C(=O)c3ccccc3C2=O)cc1 (configuration not stated)
inactive: Malme-3M > 100 µM | ACHN > 100 µM | A549 > 100 µM | RPMI-8226 > 100 µM | SF-268 > 100 µM | SF-295 > 100 µM | SNB-19 > 100 µM | M14 > 100 µM | SK-MEL-28 > 100 µM | MOLT-4 > 100 µM | TK-10 > 100 µM | EKVX > 100 µM | CCRF-CEM > 100 µM | OVCAR-5 > 100 µM | U-251 > 100 µM | HT-29 > 100 µM

COc1ccc(/C(C=O)=C(\Cl)c2ccc(OC)c(OC)c2)cc1
inactive: Malme-3M > 100 µM | SNB-75 22.6 µM | ACHN > 100 µM | A549 > 100 µM | RPMI-8226 > 100 µM | SF-268 46.1 µM | SF-295 > 100 µM | SF-539 57.3 µM | SNB-19 > 100 µM | M14 > 100 µM | NCI-H23 > 100 µM | MOLT-4 87.3 µM | TK-10 > 100 µM | SK-MEL-2 > 100 µM | EKVX > 100 µM | CCRF-CEM 52.4 µM | OVCAR-5 > 100 µM | U-251 32.1 µM | HT-29 > 100 µM

O=C1/C(=C/c2ccc(Cl)cc2)N=C(c2ccccc2)N1/N=C/c1ccccc1O
inactive: Malme-3M 1.98 µM | SNB-75 6.31 µM | ACHN 5.05 µM | A549 19.2 µM | RPMI-8226 6.89 µM | SF-268 14.8 µM | SF-295 11.9 µM | SF-539 10.9 µM | SNB-19 > 100 µM | M14 2.84 µM | NCI-H23 > 100 µM | SK-MEL-28 15.1 µM | MOLT-4 12.6 µM | TK-10 1.68 µM | SK-MEL-2 17.1 µM | EKVX 4.66 µM | CCRF-CEM 2.11 µM | OVCAR-5 12.7 µM | U-251 5.27 µM | HT-29 21.1 µM
